Reference: US9006450B2 (Boehringer Ingelheim International GmbH, priority 2010, dated 2015)

What follows are compounds tested against T1, human ACC2 (Homo sapiens, UniProt O00763) (assay: ACC2 assay, spectrophotometric 384 well assay (NADH-linked, coupled lactate dehydrogenase/pyruvate kinase)). Settings: ACC2 assay, hACC2 construct lacking 128 N-terminal amino acids, 25° C., 340 nm; read-out: IC50.
T1 construct: made in house; host or cells: insect cells (baculoviral expression system)
T1 sequence (O00763 129-2458 limits assumed): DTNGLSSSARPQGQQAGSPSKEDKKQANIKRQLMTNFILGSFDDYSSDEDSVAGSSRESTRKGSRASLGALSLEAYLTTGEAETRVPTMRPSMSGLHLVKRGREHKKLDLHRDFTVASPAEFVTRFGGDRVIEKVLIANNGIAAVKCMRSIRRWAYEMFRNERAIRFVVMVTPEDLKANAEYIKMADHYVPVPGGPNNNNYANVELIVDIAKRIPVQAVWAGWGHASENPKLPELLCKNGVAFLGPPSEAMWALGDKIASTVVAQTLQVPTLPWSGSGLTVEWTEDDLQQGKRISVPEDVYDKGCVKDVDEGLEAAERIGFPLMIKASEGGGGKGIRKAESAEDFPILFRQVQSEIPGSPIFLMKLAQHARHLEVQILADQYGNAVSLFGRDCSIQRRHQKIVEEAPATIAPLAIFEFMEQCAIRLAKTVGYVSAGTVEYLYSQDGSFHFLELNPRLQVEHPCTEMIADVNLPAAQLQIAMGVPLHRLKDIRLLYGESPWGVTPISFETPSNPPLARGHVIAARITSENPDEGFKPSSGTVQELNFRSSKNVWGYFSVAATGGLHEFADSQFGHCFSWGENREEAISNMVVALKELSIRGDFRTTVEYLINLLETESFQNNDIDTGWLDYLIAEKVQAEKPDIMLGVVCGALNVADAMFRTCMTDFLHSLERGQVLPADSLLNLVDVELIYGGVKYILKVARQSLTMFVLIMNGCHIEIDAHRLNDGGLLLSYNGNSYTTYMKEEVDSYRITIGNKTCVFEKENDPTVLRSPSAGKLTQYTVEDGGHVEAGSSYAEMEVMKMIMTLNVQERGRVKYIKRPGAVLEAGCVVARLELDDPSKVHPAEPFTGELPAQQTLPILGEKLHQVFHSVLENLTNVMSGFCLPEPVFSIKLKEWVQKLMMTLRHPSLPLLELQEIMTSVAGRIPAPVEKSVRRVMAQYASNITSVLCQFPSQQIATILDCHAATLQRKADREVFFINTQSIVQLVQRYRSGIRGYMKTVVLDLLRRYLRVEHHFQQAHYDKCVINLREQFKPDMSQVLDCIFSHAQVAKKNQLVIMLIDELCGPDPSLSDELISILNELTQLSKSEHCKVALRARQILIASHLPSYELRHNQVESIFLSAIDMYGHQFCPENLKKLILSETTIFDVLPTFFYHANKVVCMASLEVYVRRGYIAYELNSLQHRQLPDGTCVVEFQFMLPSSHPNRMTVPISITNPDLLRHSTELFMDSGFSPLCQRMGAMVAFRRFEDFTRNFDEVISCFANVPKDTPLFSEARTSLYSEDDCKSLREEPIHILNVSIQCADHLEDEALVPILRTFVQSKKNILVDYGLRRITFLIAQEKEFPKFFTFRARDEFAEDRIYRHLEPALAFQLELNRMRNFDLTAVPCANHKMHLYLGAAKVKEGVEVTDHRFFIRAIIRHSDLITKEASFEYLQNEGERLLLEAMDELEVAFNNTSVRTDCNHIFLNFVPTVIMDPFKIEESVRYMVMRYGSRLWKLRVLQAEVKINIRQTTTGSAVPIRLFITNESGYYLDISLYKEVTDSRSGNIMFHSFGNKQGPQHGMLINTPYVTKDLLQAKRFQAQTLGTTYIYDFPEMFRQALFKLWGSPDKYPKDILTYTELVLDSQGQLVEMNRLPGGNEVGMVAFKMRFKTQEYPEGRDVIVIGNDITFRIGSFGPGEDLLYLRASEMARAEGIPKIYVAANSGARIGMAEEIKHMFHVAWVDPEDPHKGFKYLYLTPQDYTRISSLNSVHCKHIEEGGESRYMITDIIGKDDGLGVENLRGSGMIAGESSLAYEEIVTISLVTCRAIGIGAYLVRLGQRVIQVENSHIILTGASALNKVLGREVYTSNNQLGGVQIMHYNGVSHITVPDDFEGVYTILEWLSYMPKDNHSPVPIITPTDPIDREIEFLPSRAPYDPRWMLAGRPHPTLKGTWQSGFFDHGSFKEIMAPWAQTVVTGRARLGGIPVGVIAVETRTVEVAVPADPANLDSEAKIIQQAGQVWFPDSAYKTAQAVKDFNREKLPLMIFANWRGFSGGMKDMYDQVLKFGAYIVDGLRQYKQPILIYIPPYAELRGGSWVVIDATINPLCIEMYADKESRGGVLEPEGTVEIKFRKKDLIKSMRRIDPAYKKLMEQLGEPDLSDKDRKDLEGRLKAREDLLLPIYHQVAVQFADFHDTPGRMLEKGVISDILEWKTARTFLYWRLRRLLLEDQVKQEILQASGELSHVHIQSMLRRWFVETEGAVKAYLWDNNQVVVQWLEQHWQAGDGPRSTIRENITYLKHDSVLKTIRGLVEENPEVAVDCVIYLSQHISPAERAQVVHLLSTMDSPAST
Format: biochemical
Outline: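 Human ACC2 lacking N-terminal 128 aa, baculovirus/insect-cell expressed, anion-exchange purified; 100 mM Tris pH 7.5, 10 mM citrate, 25 mM KHCO3, 1% DMSO. Started with 200 μM NADH and acetyl-CoA plus 500 μM ATP; PK/LDH-coupled A340 decrease read 15 min at 25° C. IC50 by nonlinear fit of low-control-subtracted slopes.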
`CC(=O)N[C@@H](C)c1ccc(C2CCN(c3ccc(C4CC4)nc3)CC2)cc1` [Example 1.175] gave an IC50 of 1.1 µM.
Compound `CCCOc1ccc(N2CCC(c3ccc([C@H](C)NC(=O)N(C)C)cc3)CC2)nc1` [Example 1.178] has an IC50 of 0.17 µM.
`CCOc1ccc(N2CCC(c3ccc([C@H](C)NC(=O)N(C)C)cc3)CC2)nc1` [Example 1.179] was tested, and the IC50 was 0.31 µM.
Work on `CCOc1ccc(N2CCC(c3ccc([C@H](C)NC(C)=O)cc3)CC2)c(OCC)n1` [Example 1.180] yielded an IC50 of 0.53 µM.
`CCCOc1ccc(N2CCC(c3ccc([C@H](C)NC(C)=O)cc3)CC2)c(C#N)n1` [Example 1.181] gave an IC50 of 0.09 µM.
With `CC(=O)N[C@@H](C)c1ccc(C2CCN(c3ccc(OCC4CC4)nc3C#N)CC2)cc1` [Example 1.183] the IC50 was 0.15 µM.
Compound `CC(=O)N[C@@H](C)c1ccc(C2CCN(c3cc4c(cc3F)OCCCO4)CC2)cc1` [Example 1.184] has an IC50 of 1.2 µM.
`C[C@H](NC(=O)C1CC1)c1ccc(C2CCN(c3cc4c(cc3F)OCCCO4)CC2)cc1` [Example 1.185] showed an IC50 of 22.1 µM.
Compound `CC(=O)N[C@@H](C)c1ccc(C2CCN(c3ccc(OCc4ccoc4)cc3)CC2)cc1` [Example 1.186] has an IC50 of 0.17 µM.
`CC(=O)N[C@@H](C)c1ccc(C2CCN(c3cccc(C(F)(F)F)c3)CC2)cc1` [Example 1.188] was tested, and the IC50 was 0.08 µM.
`CC(=O)N[C@@H](C)c1ccc(C2CCN(c3ccc(OC4CC4)cc3F)CC2)cc1` [Example 1.189] was tested, and the IC50 was 0.06 µM.
Compound `CCOc1cc(N2CCC(c3ccc([C@H](C)NC(C)=O)cc3)CC2)c(F)cn1` [Example 1.190] has an IC50 of 1.4 µM.
Work on `CCOc1cc(N2CCC(c3ccc([C@H](C)NC(C)=O)cc3)CC2)ccn1` [Example 1.191] yielded an IC50 of 0.39 µM.
Work on `CC(=O)N[C@@H](C)c1ccc(C2CCN(c3ccc4c(c3F)OCCO4)CC2)cc1` [Example 1.192] yielded an IC50 of 0.12 µM.
`CCCOc1ccc(N2CCC(c3ccc(C(CC)NC(C)=O)cc3)CC2)cc1` (stereo not drawn) [Example 1.200] gave an IC50 of 0.45 µM.
`CCC(NC(C)=O)c1ccc(C2CCN(c3ccc4c(c3)OCCO4)CC2)cc1` (stereo not drawn) [Example 1.201] was tested, and the IC50 was 4.6 µM.
In the case of `CCC(NC(C)=O)c1ccc(C2CCN(c3ccc(OCC4CC4)cc3F)CC2)cc1` (stereo not drawn) [Example 1.202], the IC50 is reported as 1.9 µM.
Work on `CCC(NC(C)=O)c1ccc(C2CCN(c3ccc(OCC4CC4)cc3)CC2)cc1` (stereo not drawn) [Example 1.203] yielded an IC50 of 0.62 µM.
Compound `CCC(NC(C)=O)c1ccc(C2CCN(c3ccc(OC4CC4)cc3)CC2)cc1` (stereo not drawn) [Example 1.204] has an IC50 of 0.45 µM.
Compound `CCC(NC(C)=O)c1ccc(C2CCN(c3ccc(OCC4CC4(F)F)cc3)CC2)cc1` (stereo not drawn) [Example 1.205] has an IC50 of 0.66 µM.
Work on `CCOc1ccc(N2CCC(c3ccc(C(CC)NC(C)=O)cc3)CC2)cc1` (stereo not drawn) [Example 1.206] yielded an IC50 of 4.7 µM.
`CCOc1ccc(N2CCC(c3ccc(C(CC)NC(C)=O)cc3)CC2)c(F)c1` (stereo not drawn) [Example 1.207] showed an IC50 of 5.1 µM.
In the case of `CCOc1ccc(N2CCC(c3ccc(CC(C)NC(C)=O)cc3)CC2)cc1` (stereo not drawn) [Example 2.1, N-(2-{4-[1-(4-Ethoxy-phenyl)-piperidin-4-yl]-phenyl}-1-methyl-ethyl)-acetamide], the IC50 is reported as 2.1 µM.
Compound `CCCOc1ccc(N2CCC(c3ccc(CC(C)NC(C)=O)cc3)CC2)cc1` (stereo not drawn) [Example 2.3] has an IC50 of 0.99 µM.
With `CC(=O)NC(C)Cc1ccc(C2CCN(c3ccc4c(c3)OCCO4)CC2)cc1` (stereo not drawn) [Example 2.4] the IC50 was 1.8 µM.
`CC(=O)NC(C)Cc1ccc(C2CCN(c3ccc(OCC(C)C)cc3)CC2)cc1` (stereo not drawn) [Example 2.7] gave an IC50 of 1.6 µM.
In the case of `CC(=O)NC(C)Cc1ccc(C2CCN(c3ccc(OCC4CC4)cc3)CC2)cc1` (stereo not drawn) [Example 2.8], the IC50 is reported as 0.96 µM.
For `CC(=O)NC(C)Cc1ccc(C2CCN(c3ccc(OC4CC4)cc3)CC2)cc1` (stereo not drawn) [Example 2.9], the IC50 was 0.46 µM.
`CCOc1ccc(N2CCC(c3ccc(CC(C)NC(C)=O)cc3)CC2)c(C#N)c1` (stereo not drawn) [Example 2.11] gave an IC50 of 1.3 µM.
`CCOc1ccc(N2CCC(c3ccc(CC(C)NC(C)=O)cc3)CC2)c(F)c1` (stereo not drawn) [Example 2.12] was tested, and the IC50 was 0.53 µM.
`CC(=O)N[C@@H](C)c1ccc(C2CCN(c3cnn(Cc4ccccc4)c3)CC2)cc1` [Example 2.13] showed an IC50 of 1.9 µM.
`CC(=O)N[C@@H](C)c1ccc(C2CCN(c3ccc(Oc4ccccc4)nc3)CC2)cc1` [Example 3.1, (S)—N-{1-[4-(6′-Phenoxy-3,4,5,6-tetrahydro-2H-1,3′]bipyridinyl-4-yl)-phenyl′-ethyl}-acetamide] showed an IC50 of 0.36 µM.
In the case of `COc1cc(N2CCC(c3ccc([C@H](C)NC(C)=O)cc3)CC2)ccn1` [Example 3.2], the IC50 is reported as 0.33 µM.
Work on `CC(=O)N[C@@H](C)c1ccc(C2CCN(c3ccnc(OC(C)C)c3)CC2)cc1` [Example 3.3] yielded an IC50 of 0.11 µM.
Compound `CCCCOc1cc(N2CCC(c3ccc([C@H](C)NC(C)=O)cc3)CC2)ccn1` [Example 3.4] has an IC50 of 0.11 µM.
Compound `CC(=O)N[C@@H](C)c1ccc(C2CCN(c3ccnc(Oc4cncnc4)c3)CC2)cc1` [Example 3.5] has an IC50 of 0.59 µM.
Work on `CC(=O)N[C@@H](C)c1ccc(C2CCN(c3ccc(OCC(C)C)cc3)CC2)cc1` [Example 3.7] yielded an IC50 of 0.74 µM.
In the case of `CCCOc1ccc(N2CCC(c3ccc([C@H](C)NC(C)=O)cc3)CC2)cc1` [Example 3.8], the IC50 is reported as 0.34 µM.
In the case of `CCCn1ccc(N2CCC(c3ccc([C@H](C)NC(C)=O)cc3)CC2)cc1=O` [Example 3.9], the IC50 is reported as 13.3 µM.
In the case of `CC(=O)N[C@@H](C)c1ccc(C2CCN(c3ccc(Oc4ccccc4)nn3)CC2)cc1` [Example 3.10], the IC50 is reported as 1.6 µM.
`CCOc1ccc(N2CCC(c3ccc([C@H](C)NC(C)=O)cc3)CC2)nn1` [Example 3.11] showed an IC50 of 3 µM.
With `CC(=O)N[C@@H](C)c1ccc(C2CCN(c3ccnc(Oc4ccccc4)c3)CC2)cc1` [Example 3.12] the IC50 was 0.06 µM.
With `CCCCOc1ccc(N2CCC(c3ccc([C@H](C)NC(C)=O)cc3)CC2)nn1` [Example 3.13] the IC50 was 0.47 µM.
Work on `C[C@H](NC(=O)C1CC1)c1ccc(C2CCN(c3ccnc(Oc4ccccc4)c3)CC2)cc1` [Example 3.14] yielded an IC50 of 0.42 µM.
`CCOc1ccc(N2CCC(c3ccc(C4(NC(C)=O)CC4)cc3)CC2)cc1` [Example 3.20] showed an IC50 of 7.4 µM.
Work on `CC(=O)N[C@@H](C)c1ccc(C2CCN(c3ncccc3C#N)CC2)cc1` [Example 4.1, (S)—N-(1-{4-[1-(3-Cyanopyridin-2-yl)piperidin-4-yl]phenyl}ethyl)acetamide] yielded an IC50 of 2.5 µM.
`CC(=O)N[C@@H](C)c1ccc(C2CCN(c3nc4ccccc4s3)CC2)cc1` [Example 4.2] gave an IC50 of 1.3 µM.
For `CC(=O)N[C@@H](C)c1ccc(C2CCN(c3ccc4ccccc4n3)CC2)cc1` [Example 4.3], the IC50 was 0.45 µM.
`CC(=O)N[C@@H](C)c1ccc(C2CCN(c3cc(C)c4ccccc4n3)CC2)cc1` [Example 4.4] was tested, and the IC50 was 1.8 µM.
In the case of `CC(=O)N[C@@H](C)c1ccc(C2CCN(c3ccc(C#N)cn3)CC2)cc1` [Example 4.5], the IC50 is reported as 2.6 µM.
For `CC(=O)N[C@@H](C)c1ccc(C2CCN(c3cc(C(F)(F)F)ncn3)CC2)cc1` [Example 4.6], the IC50 was 1.6 µM.
Compound `CC(=O)N[C@@H](C)c1ccc(C2CCN(c3ncnc4ccccc34)CC2)cc1` [Example 4.7] has an IC50 of 0.95 µM.
In the case of `CC(=O)N[C@@H](C)c1ccc(C2CCN(c3nc(Cl)cc4ccccc34)CC2)cc1` [Example 4.8], the IC50 is reported as 0.97 µM.
With `CC(=O)N[C@@H](C)c1ccc(C2CCN(c3nc4ccccc4o3)CC2)cc1` [Example 4.9] the IC50 was 1.9 µM.
Compound `CC(=O)N[C@@H](C)c1ccc(C2CCN(c3ccc4cc(Cl)ccc4n3)CC2)cc1` [Example 4.10] has an IC50 of 0.67 µM.
`CC(=O)N[C@@H](C)c1ccc(C2CCN(c3nccc(C(F)(F)F)n3)CC2)cc1` [Example 4.11] showed an IC50 of 0.85 µM.
`CC(=O)N[C@@H](C)c1ccc(C2CCN(c3nc4ccccc4n3C)CC2)cc1` [Example 4.12] gave an IC50 of 11.6 µM.
